Reference: ChEMBL document CHEMBL1201862, “PubChem BioAssay data set” (2004)
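Cultured in 96-well plates, cells were exposed to test compound for 48 hours across five concentrations. At the GI50, growth is halved.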 Calls of active or inactive are those of the source. No stated cut-off is given here; in the data, active = GI50 up to about 1.1 µM and inactive = higher.

Key:
Test in all cases: growth of human tumour cells (NCI), 48 h
SR = tested on: SR
U-251 = tested on: U-251
UO-31 = tested on: UO-31
DLD-1 = tested on: DLD-1
NCI-H522 = tested on: NCI-H522
OVCAR-5 = tested on: OVCAR-5
EKVX = tested on: EKVX
786-0 = tested on: 786-0
Malme-3M = tested on: Malme-3M
MDA-MB-231 = tested on: MDA-MB-231
HCT-15 = tested on: HCT-15
M19-MEL = tested on: M19-MEL
LOX IMVI = tested on: LOX IMVI
HCT-116 = tested on: HCT-116
KM12 = tested on: KM12
XF498 = tested on: XF498
K562 = tested on: K562
SW-620 = tested on: SW-620
SK-MEL-2 = tested on: SK-MEL-2
SF-539 = tested on: SF-539
CAKI-1 = tested on: CAKI-1
HT-29 = tested on: HT-29
IGROV-1 = tested on: IGROV-1
Hs-578T = tested on: Hs-578T
RPMI-8226 = tested on: RPMI-8226
ACHN = tested on: ACHN
CCRF-CEM = tested on: CCRF-CEM
DU-145 = tested on: DU-145
M14 = tested on: M14
HOP-18 = tested on: HOP-18
MCF7 = tested on: MCF7
HOP-92 = tested on: HOP-92
SK-MEL-28 = tested on: SK-MEL-28
A498 = tested on: A498
SNB-78 = tested on: SNB-78
T47D = tested on: T47D
OVCAR-4 = tested on: OVCAR-4
HCC 2998 = tested on: HCC 2998
MDA-N = tested on: MDA-N
BT-549 = tested on: BT-549
DMS-114 = tested on: DMS-114
SK-MEL-5 = tested on: SK-MEL-5
MDA-MB-435 = tested on: MDA-MB-435
HOP-62 = tested on: HOP-62
KM-20L2 = tested on: KM-20L2
UACC-62 = tested on: UACC-62
NCI/ADR-RES = tested on: NCI/ADR-RES
A549 = tested on: A549
LXFL 529 = tested on: LXFL 529
UACC-257 = tested on: UACC-257
SK-OV-3 = tested on: SK-OV-3
SNB-75 = tested on: SNB-75
PC-3 = tested on: PC-3
NCI-H23 = tested on: NCI-H23
SF-295 = tested on: SF-295
RXF 393 = tested on: RXF 393
DMS-273 = tested on: DMS-273
SN12C = tested on: SN12C
NCI-H226 = tested on: NCI-H226
MOLT-4 = tested on: MOLT-4
NCI-H460 = tested on: NCI-H460
OVCAR-3 = tested on: OVCAR-3
TK-10 = tested on: TK-10
HL-60 = tested on: HL-60
OVCAR-8 = tested on: OVCAR-8
COLO 205 = tested on: COLO 205
SNB-19 = tested on: SNB-19
SF-268 = tested on: SF-268
RXF 631 = tested on: RXF 631

For `COc1cc(C(=O)NC2CCc3cc(OC)c(OC)c(OC)c3-c3ccc(OC)c(=O)cc32)cc(OC)c1OC` (stereo not drawn), the GI50 (SR) was 0.0249 µM (active), the GI50 (U-251) was 0.0555 µM (active) and the GI50 (UO-31) was 10.9 µM (inactive). The GI50 (DLD-1) was 0.265 µM (active), the GI50 (NCI-H522) was 0.0234 µM (active) and the GI50 (OVCAR-5) was 2.75 µM (inactive). The GI50 (EKVX) was 12 µM (inactive), the GI50 (786-0) was 0.288 µM (active) and the GI50 (Malme-3M) was 0.141 µM (active). The GI50 (MDA-MB-231) was 0.0306 µM (active), the GI50 (HCT-15) was 3.53 µM and the GI50 (M19-MEL) was 0.0577 µM (active). For the same compound, the GI50 (LOX IMVI) was 0.0424 µM (active), the GI50 (HCT-116) was 0.043 µM (active) and the GI50 (KM12) was 0.036 µM (active). The GI50 (XF498) was 0.15 µM (active), the GI50 (K562) was 0.0403 µM (active) and the GI50 (SW-620) was 0.0521 µM (active). For the same compound, the GI50 (SK-MEL-2) was 0.0935 µM (active), the GI50 (SF-539) was 0.0228 µM (active) and the GI50 (CAKI-1) was 1.15 µM (inactive). For the same compound, the GI50 (HT-29) was 0.0467 µM (active), the GI50 (IGROV-1) was 0.0891 µM (active) and the GI50 (Hs-578T) was 0.025 µM (active). For the same compound, the GI50 (RPMI-8226) was 0.0279 µM (active), the GI50 (ACHN) was 2.65 µM (inactive) and the GI50 (CCRF-CEM) was 0.0339 µM (active). The GI50 (DU-145) was 0.24 µM (active), the GI50 (M14) was 0.202 µM (active) and the GI50 (HOP-18) was > 29.4 µM (inactive). For the same compound, the GI50 (MCF7) was < 0.0176 µM (active), the GI50 (HOP-92) was 0.0592 µM (active) and the GI50 (SK-MEL-28) was 0.192 µM (active). For the same compound, the GI50 (A498) was 0.274 µM (active), the GI50 (SNB-78) was 0.0232 µM (active) and the GI50 (T47D) was 18.8 µM (inactive). The GI50 (OVCAR-4) was 15.8 µM (inactive), the GI50 (HCC 2998) was 0.0776 µM (active) and the GI50 (MDA-N) was 0.0202 µM (active). The GI50 (BT-549) was 0.083 µM (active), the GI50 (DMS-114) was 0.0233 µM (active) and the GI50 (SK-MEL-5) was 0.0553 µM (active). The GI50 (MDA-MB-435) was 0.0292 µM (active), the GI50 (HOP-62) was 0.471 µM (active) and the GI50 (KM-20L2) was 0.0817 µM (active). For the same compound, the GI50 (UACC-62) was 0.0711 µM (active), the GI50 (NCI/ADR-RES) was 18.2 µM (inactive) and the GI50 (A549) was 0.431 µM (active). The GI50 (LXFL 529) was 0.0272 µM (active), the GI50 (UACC-257) was 0.0938 µM (active) and the GI50 (SK-OV-3) was 0.231 µM (active). The GI50 (SNB-75) was 0.13 µM (active), the GI50 (PC-3) was 0.0807 µM (active) and the GI50 (NCI-H23) was 0.0809 µM (active). The GI50 (SF-295) was 0.153 µM (active), the GI50 (RXF 393) was 0.466 µM (active) and the GI50 (DMS-273) was 0.0316 µM (active). The GI50 (SN12C) was 0.199 µM (active), the GI50 (NCI-H226) was 0.444 µM (active) and the GI50 (MOLT-4) was 0.0451 µM (active). The GI50 (NCI-H460) was 0.143 µM (active), the GI50 (OVCAR-3) was 0.0372 µM (active) and the GI50 (TK-10) was 1.49 µM (inactive). The GI50 (HL-60) was 0.0259 µM (active), the GI50 (OVCAR-8) was 0.201 µM (active) and the GI50 (COLO 205) was 0.0585 µM (active). The GI50 (SNB-19) was 0.138 µM (active) and the GI50 (SF-268) was 0.0828 µM (active).
With `CCOc1ccccc1N1C(=O)C(=O)C(c2nc3ccccc3o2)C(=O)C1=O` the GI50 (SR) was > 100 µM (inactive), the GI50 (U-251) was > 100 µM (inactive) and the GI50 (UO-31) was 61.5 µM (inactive). The GI50 (DLD-1) was > 100 µM (inactive), the GI50 (NCI-H522) was > 100 µM (inactive) and the GI50 (OVCAR-5) was > 100 µM (inactive). For the same compound, the GI50 (EKVX) was 71.9 µM (inactive), the GI50 (786-0) was 21.2 µM (inactive) and the GI50 (Malme-3M) was > 100 µM (inactive). The GI50 (HCT-15) was over 100 µM, the GI50 (M19-MEL) was > 100 µM (inactive) and the GI50 (LOX IMVI) was > 100 µM (inactive). The GI50 (HCT-116) was 70.5 µM (inactive), the GI50 (K562) was > 100 µM (inactive) and the GI50 (SW-620) was > 100 µM (inactive). The GI50 (SK-MEL-2) was > 100 µM (inactive), the GI50 (SF-539) was > 100 µM (inactive) and the GI50 (CAKI-1) was 66.8 µM (inactive). For the same compound, the GI50 (HT-29) was > 100 µM (inactive), the GI50 (IGROV-1) was > 100 µM (inactive) and the GI50 (RPMI-8226) was > 100 µM (inactive). For the same compound, the GI50 (ACHN) was 28.3 µM (inactive), the GI50 (CCRF-CEM) was > 100 µM (inactive) and the GI50 (M14) was > 100 µM (inactive). The GI50 (HOP-18) was 28.7 µM (inactive), the GI50 (HOP-92) was > 100 µM (inactive) and the GI50 (SK-MEL-28) was > 100 µM (inactive). The GI50 (A498) was 48.6 µM (inactive), the GI50 (SNB-78) was > 100 µM (inactive) and the GI50 (OVCAR-4) was 15.7 µM (inactive). The GI50 (HCC 2998) was > 100 µM (inactive), the GI50 (DMS-114) was > 100 µM (inactive) and the GI50 (SK-MEL-5) was > 100 µM (inactive). The GI50 (HOP-62) was > 100 µM (inactive), the GI50 (KM-20L2) was > 100 µM (inactive) and the GI50 (UACC-62) was > 100 µM (inactive). The GI50 (A549) was 48.6 µM (inactive), the GI50 (LXFL 529) was > 100 µM (inactive) and the GI50 (UACC-257) was > 100 µM (inactive). For the same compound, the GI50 (SK-OV-3) was 28.6 µM (inactive), the GI50 (SNB-75) was 42.6 µM (inactive) and the GI50 (NCI-H23) was > 100 µM (inactive). The GI50 (SF-295) was 20.8 µM (inactive), the GI50 (DMS-273) was > 100 µM (inactive) and the GI50 (SN12C) was 93.8 µM (inactive). For the same compound, the GI50 (NCI-H226) was > 100 µM (inactive), the GI50 (MOLT-4) was > 100 µM (inactive) and the GI50 (OVCAR-3) was > 100 µM (inactive). The GI50 (TK-10) was 39.7 µM (inactive), the GI50 (HL-60) was > 100 µM (inactive) and the GI50 (OVCAR-8) was 70.5 µM (inactive). The GI50 (RXF 631) was > 100 µM (inactive), the GI50 (COLO 205) was > 100 µM (inactive) and the GI50 (SNB-19) was > 100 µM (inactive). For the same compound, the GI50 (SF-268) was > 100 µM (inactive).
